Where a name gives a salt, the structure may show the parent alone.

This data set is described as follows: Final product mixed with Deionized Water at room temperature. Type of data set: physicochemical. To be noted: 0.0130 g of final product mixed with 1.287 g of Deionized Water at room temperature. An excerpt: Vacuum filtered solution through Grade 4 filter paper to obtain a clear, colorless solution. […] The solution was concentrated using a rotary evaporator until mixture began to foam, then solution was transferred to a glass crystallizing dish and placed in a vacuum oven at room temperature under a partial vacuum of 3 inches of Hg internal oven pressure.
In the case of `CCCCCCCCCCCCNC(=O)[C@H](O)[C@@H](O)[C@H](O)[C@H](O)COS(=O)(=O)O` [Example 1, Sodium (2R,3R,4S,5R)-6-(dodecylamino)-2,3,4,5-tetrahydroxy-6-oxohexyl sulfate], the “appearance of mixture with Deionized Water (solubility)” value was “completely clear, colorless solution that foamed when shaken”.
As for `CCCCCCCCCCCCCCNC(=O)[C@H](O)[C@@H](O)[C@H](O)[C@H](O)COS(=O)(=O)O` [Example 2, Sodium (2R,3R,4S,5R)-6-(tetradecylamino)-2,3,4,5-tetrahydroxy-6-oxohexyl sulfate], the entry is “completely clear, colorless solution that foamed when shaken”; as for `CCCCCCCCCCCCCCCCNC(=O)[C@H](O)[C@@H](O)[C@H](O)[C@H](O)COS(=O)(=O)O` [Example 3, Sodium (2R,3R,4S,5R)-6-(hexadecylamino)-2,3,4,5-tetrahydroxy-6-oxohexyl sulfate], “completely clear, colorless solution that foamed when shaken”.
As for `CCCCCCCC/C=C\CCCCCCCCNC(=O)[C@H](O)[C@@H](O)[C@H](O)[C@H](O)COS(=O)(=O)O` [Example 4, Sodium (2R,3R,4S,5R)-2,3,4,5-tetrahydroxy-6-(((Z)-octadec-9-en-1-yl)amino)-6-oxohexyl sulfate], the entry is “completely clear, colorless solution that foamed when shaken”; as for `O=C(NCc1ccccc1)[C@H](O)[C@@H](O)[C@H](O)[C@H](O)COS(=O)(=O)O` [Example 7, Sodium (2R,3R,4S,5R)-6-(benzylamino)-2,3,4,5-tetrahydroxy-6-oxohexyl Sulfate], “completely clear, colorless solution that foamed when shaken”; as for “Sodium (2R,3R,4S,5R)-6-((2-1H-indol-2-yl)ethyl) amino)-2,3,4,5-tetrahydroxy-6-Oxohexyl Sulfate [Example 8]”, “completely clear, colorless solution that foamed when shaken”.

Values taken from patent US20240409505A1, “GLUCONAMIDE SULFATE SURFACTANTS” (The Procter & Gamble Company, priority 2023, published 2024).
